Patent publication EP0359821A1, “METHOD OF STERILIZING PLANT ANTHERS” (priority 1988, dated 1989)
Read-outs that look alike come from different tables or passages of the source.

Experiments:
[1] = tested on: Winterweizens Sorte Mironovskaya 808; assay: Field trial of gametocidal activity (anther sterilisation), winter wheat; format: in vivo, Weizen; conditions: 2% aqueous emulsion, 20 kg/ha; for response vs control in vivo at 20000 g/ha: control = 100, read-out: Prozentsatz des Ansetzens bei freier Bestäubung; for pest or weed control at 20000 g/ha: read-out: Prozentsatz der Sterilität
[2] = in vivo; conditions: mouse
[3] = tested on: Diploider Roggen Sorte Chulpan; assay: Field trial of gametocidal activity, diploid rye Chulpan; format: in vivo; conditions: single compounds, 1% aqueous emulsion, 10 kg/ha; for Anzahl von Körnern der Ähre bei freier Bestäubung / Anzahl von Körnern der Ähre im Isolator / percent sterility at 10000 g/ha / pest or weed control at 10000 g/ha: V. or VI. period; for percent sterility at 10000 g/ha: read-out: Prozentsatz der Sterilität; for pest or weed control at 10000 g/ha: read-out: Prozentsatz der Sterilität, Chulpan
Text: Bei Weizen und Tritikale werden Einzelisolatoren verwendet.
Pflanzen von diploidem Roggen Sorte Chulpan werden in der V. oder VI.
Der Verbrauch an Sterilisationsmitteln beträgt 10 kg/ha.

[4] = tested on: Tetraploider Roggen Sorte Belta; assay: Field trial of gametocidal activity, tetraploid rye Belta; format: in vivo; conditions: 1% aqueous emulsion, 10 kg/ha; for response vs control in vivo at 10000 g/ha: control = 100, read-out: Prozentsatz des Ansetzens bei freier Bestäubung
[5] = tested on: Sonnenblume Sorte Peredovik; assay: Field trial of pollen sterilisation, sunflower Peredovik; format: in vivo; conditions: 0,2% aqueous emulsion, 1,2 kg/ke (so in the source); for Ansetzen von Achänen bei freier Bestäubung in % / Ansetzen von Achänen im Isolator bei der Bestäubung mit dem Pollengemisch in %: V. or VI. period
Text: Pflanzen der Sonnenblume Sorte Peredovik werden in der V. oder VI.
Der Verbrauch an Sterilisationsmittel beträgt 1,2 kg/ke.

[6] = tested on: Sonnenblume Linie VK 119; assay: Field trial of pollen sterilisation, sunflower line VK 119; conditions: 0,2% aqueous emulsion, 1,2 kg/ha
[7] = tested on: Hirse Sorte K-9693 Kormovoe 1; assay: Field trial of gametocidal activity, millet K-9693 Kormovoe 1; conditions: 1% aqueous emulsion, 10 kg/ha
[8] = tested on: Roggen Sorte Voskhod 2; assay: Field trial of gametocidal activity, diploid rye Voskhod 2; format: in vivo; conditions: 1% aqueous emulsion, 8 kg/ha
[9] = tested on: Hirse Sorte Mironovskoe 94; assay: Field trial of gametocidal activity, millet Mironovskoe 94; format: in vivo; conditions: 1% aqueous emulsion, 10 kg/ha
[10] = V. or VI. period of organogenesis
[11] = V. or VI. period, listed as Beispiel 7I
[12] = read-out: Prozentsatz des Ansetzens bei freier Bestäubung, Chulpan, control = 100
[13] = V. or VI. period, read-out: Prozentsatz der Sterilität

Compound	Anzahl von Körnern der Ähre im Isolator [1, 10]	response vs control in vivo at 20000 g/ha [1] [%]	LD50 ([2]; LD50, weisse Mäuse) [mg/kg]	pest or weed control at 20000 g/ha [1, 10] [%]	Anzahl von Körnern der Ähre bei freier Bestäubung ([3]; Chulpan)	Anzahl von Körnern der Ähre im Isolator ([3]; Chulpan)	percent sterility at 10000 g/ha ([3]; Chulpan) [%]	response vs control in vivo at 10000 g/ha [3, 12] [%]	Anzahl von Körnern der Ähre im Isolator ([4]; V. or VI. period)	response vs control in vivo at 10000 g/ha [4] [%]	pest or weed control at 10000 g/ha [3] [%]	Pollensterilität in % [5] [%]	Ansetzen von Achänen bei freier Bestäubung in % [5]	Ansetzen von Achänen im Isolator bei der Bestäubung mit dem Pollengemisch in % [5]	LD50 [2] [mg/kg]	Ansetzen von Achänen bei freier Bestäubung in % [6]	Ansetzen von Achänen im Isolator bei der Bestäubung mit dem Pollengemisch in % [6]	Pollensterilität in % [6] [%]	also measured
O=C(COc1cc(F)c(Cl)cc1Cl)OCCCl [Beispiel I0, β -Chloräthylester der 2,4-Dichlor-5-fluornhenoxyessig-säure]	0,6	74.3	500	–	–	–	–	–	–	–	–	–	–	–	–	–	–	–	–
O=C(O)c1ccccc1F [Beispiel I4, Monoäthanolaminsalz der Orthofluorbenzoesäure]	5,3	89.3	700	85.9	–	–	–	–	–	–	–	–	–	–	–	–	–	–	Anzahl von Körnern der Ähre bei freier Bestäubung [1, 10]: 36,2; Anzahl von Körnern der Ähre bei freier Bestäubung ([3]; Chulpan, listed as Beispiel 56): 56,2; Anzahl von Körnern der Ähre im Isolator ([3]; Chulpan, listed as Beispiel 56): 0,1; Prozentsatz des Ansetzens bei freier Bestäubung ([3]; Chulpan, control = 100, listed as Beispiel 56): 99,1%; Anzahl von Körnern der Ähre bei freier Bestäubung [4, 11]: 43,5; Anzahl von Körnern der Ähre im Isolator [4, 11]: 0,0; Prozentsatz des Ansetzens bei freier Bestäubung ([4]; control = 100, listed as Beispiel 7I): 98,2%
Nc1ccc(O)c(C(=O)O)c1 [Beispiel 51, Äthanolaminsalz der 5-Aminosalizylsäure]	–	–	2400	–	55,6	2,1	96	92.8	I,I	99.5	–	–	–	–	–	–	–	–	percent sterility at 10000 g/ha [4, 13]: 97.3%
OCCCl [Beispiel 45, 2-Chloräthanol]	–	–	–	–	80,2	2,2	–	88.5	0,0	95.3	95.8	100	83,9%	0,0%	580	83,5%	0,0%	100	Anzahl von Körnern der Ähre bei freier Bestäubung ([4]; V. or VI. period): 42,2; Anzahl von Körnern der Rispe bei freier Bestäubung ([7]; V. or VI. period): 130,5; Anzahl von Körnern der Rispe im Isolator ([7]; V. or VI. period): 0,0; Prozentsatz der Sterilität ([7]; V. or VI. period): 100%; Prozentsatz des Ansetzens bei freier Bestäubung ([7]; control = 100): 89,0%
CCC(CO)(CO)CBr [Beispiel 53, monobromsubstituiertem Etriol]	–	–	–	–	55,8	4,8	91.8	–	–	–	–	–	–	–	–	–	–	–	response vs control in vivo at 10000 g/ha ([3]; Chulpan, control = 100, read-out: Prozentsatz des Ansetzens bei freier Bestäubung): 98.4%
ClCC1CO1 (centres unmarked) [Beispiel II, 3-Chlor-1,2-epoxypropan]	–	77.5	–	99.8	48,9	0,0	–	86.2	–	–	100	100	82,3%	0,0%	238	85,0%	0,0%	100	Anzahl von Körnern der Ähre bei freier Bestäubung ([8]; V. or VI. period): 51,7; Anzahl von Körnern der Ähre im Isolator ([8]; V. or VI. period): 0,6; Prozentsatz der Sterilität ([8]; V. or VI. period): 98,8%; Prozentsatz des Ansetzens bei freier Bestäubung ([8]; control = 100): 94,7%; Anzahl von Körnern der Rispe bei freier Bestäubung ([9]; V. or VI. period): 312,3; Anzahl von Körnern der Rispe im Isolator ([9]; V. or VI. period): 0,0; pest or weed control at 10000 g/ha [9, 13]: 100%; response vs control in vivo at 10000 g/ha ([9]; control = 100, read-out: Prozentsatz des Ansetzens bei freier Bestäubung): 82.2%
